SMILES strings stand for the structures. Values after ≈ are worked out from the molar mass of the structure shown. Like-named read-outs stand apart in the source and are kept apart here. Where only a bound is given, the exact number is not on record here.

Data set [1] has as its system gram-positive and gram-negative bacteria. The following applies: disclosed in Japanese Laid-open Patent Application Nos. 55-139380 and 56-43284; cited from earlier work.
For a further data set, the system named is β-lactamase. The following applies: disclosed in Japanese Laid-open Patent Application Nos. 55-139380 and 56-43284; cited from earlier work.
The subject of another data set is dehydropeptidase. Put plainly: Decomposition with dehydropeptidase (stability). Particulars: dehydropeptidase extracted from pig kidney and purified; KA-6643-A given as 1. The class given is in vitro ADME.
The subject of data set [2] is Staphylococcus aureus 209P JC-1. Put plainly: Antibacterial spectrum, minimum inhibitory concentration. In kind it is cell-based.
The subject of the next data set is Proteus vulgaris OX17. Described as above. The class given is cell-based.
Data set [3] relates to Escherichia coli NIHJ JC-2. The data set is described as above. The class given is cell-based. Particulars: NIHJJC2.
For data set [4], the system named is Klebsiella pneumoniae PCI-602. The description is as above. The class given is cell-based. Particulars: PCI602.
The test system of data set [5] is Escherichia coli ML-1410R EC-1. The data set can be described thus: Antibacterial activity-improving action against β-lactam-resistant bacteria (Disc method). Particulars: ML1410REC1, 18 h. In kind it is cell-based. The procedure:
(1) Antibacterial activity-improving action against β-lactam-resistantbacteria (Disc method):
(§1) In Penassay agar (Kyoei Pharm. Co., Ltd.) in which 200 mcg/ml of aminobenzyl penicillin (AB-PC) was inoculated germs of Escherichia coli ML-1410R EC-1 which β-lactamase-producing organisms, and 10 ml of the inoculated medium were poured on a Petri disch of 9 cm in diameter and solidified to give a test medium.
(§2) On this agar medium were placed pulp discs of 8 mm in diameter into which were respectively introduced […] of aqueous solutions of the substance KA-6643-D with a concentration of 10 mcg/ml followed by culturing at 37° C. for 18 hours and measuring the diameter of an inhibition zone around each disc. For purposes of control, the above experiment was repeated using the same type of medium in which no AB-PC was added.
The synergistic effect of the present substance and Ampicillin (aminobenzylpenicillin, AB-PC) on Escherichia coli which is resistant to Ampicillin was investigated by the disc method similarly to item (II) above with the results shown in Table 2.

Data set [6] concerns Enterobacter cloacae IID 977. The data set can be described thus: Antibacterial spectrum, minimum inhibitory concentration. In kind it is cell-based. Particulars: IID977.
The next data set can be described thus: Solubility in solvents. The class given is physicochemical. Particulars: sodium salt.
Data set [7] deals with Pseudomonas aeruginosa NCTC 10490. Put plainly: Antibacterial spectrum, minimum inhibitory concentration. The following applies: NCTC10490. The class given is cell-based.
For data set [8], the system named is Ampicillin-resistant Escherichia coli. The data set can be described thus: Synergistic effect with Ampicillin (AB-PC) on Ampicillin-resistant Escherichia coli (disc method). In kind it is cell-based. The following applies: for Inhibitory zone: AB-PC 500 mcg/ml; for Diameter of inhibitory zone: AB-PC added. The protocol: as §1, §2
The synergistic effect of the present substance and Ampicillin (AB-PC) on the Ampicillin-resistant Escherichia coli was investigated by the disc method similarly to the case of item (II) above, except that AB-PC was used in an amount of 500 mcg/ml.
The synergistic effect of the present substance and Ampicillin (AB-PC) on the Ampicillin-resistant Escherichia coli was investigated by the disc method similarly to the case of item (II) above.

A further data set concerns Proteus inconstants. Put plainly: Antibacterial spectrum, minimum inhibitory concentration. In kind it is cell-based.

In the case of `CC(=O)NC=C[S+]([O-])C1=C(C(=O)O)N2C(=O)C(C(C)(C)O)C2C1` (stereo not shown) [KA-6643-A], in [1], the “antibacterial activity against both gram-positive and gram-negative bacteria” value is reported as “excellent antibacterial activity”. In the data set on β-lactamase, the β-lactamase inhibiting activity result is “β-lactamase inhibiting activity”. Also, in the data set with dehydropeptidase, the “rate of decomposition with dehydropeptidase” value was 1.

Regarding `CC(=O)NC=C[S+]([O-])C1=C(C(=O)O)N2C(=O)C(C(C)(C)OS(=O)(=O)O)C2C1` (stereo not shown) [KA-6643-B], the “antibacterial activity against both gram-positive and gram-negative bacteria” value in data set [1] is given as “excellent antibacterial activity”. The β-lactamase inhibiting activity entry in the data set on β-lactamase is reported as “β-lactamase inhibiting activity”.

A word on the MIC: it is the least concentration at which growth counts as inhibited. A high value points to a need for much substance. For the molecule `CC(=O)NCCSC1=C(C(=O)O)N2C(=O)[C@@H](C(C)(C)OS(=O)(=O)O)[C@H]2C1` [KA-6643-D], the MIC in data set [2] was 25 µg/mL (≈ 61.2 µM); in the data set with Proteus vulgaris OX17, 12.5 µg/mL (≈ 30.6 µM); in data set [3], 3.1 µg/mL (≈ 7.59 µM); in [4], 3.1 µg/mL (≈ 7.59 µM); in [6], 6.25 µg/mL (≈ 15.3 µM); in [7], 25 µg/mL (≈ 61.2 µM). Also, the zone of inhibition at 10 µg/mL in data set [5] (read-out: Diameter of inhibitory zone, present compound 10 mcg/ml, AB-PC 200 mcg/ml in medium, 37° C.) worked out at 22 mm; in data set [5] (read-out: Diameter of inhibitory zone, present compound 10 mcg/ml, no AB-PC, 37° C.), 0 mm. Also, the “Solubility in organic solvents” value in “Solubility in solvents” (organic solvents such as acetone, chloroform, ethyl acetate and petroleum ether) is listed as “substantially insoluble”. Also, in “Solubility in solvents” (water), the Solubility in water result is given as “Readily soluble”.

Regarding `CC(=O)NCCSC1=C(C(=O)O)N2C(=O)[C@@H](C(C)(C)O)[C@H]2C1` [KA-6643-G], the MIC is 6.25 µg/mL (≈ 19 µM) in data set [2]; greater than 25 µg/mL against Proteus vulgaris OX17; greater than 25 µg/mL in [3]; greater than 25 µg/mL in data set [4]; greater than 25 µg/mL in data set [6]; greater than 25 µg/mL in [7]. The Inhibitory zone in data set [8] (present substance 250 mcg/ml) is listed as 20.5 mm; in data set [8] (present substance 500 mcg/ml), 22.5 mm; in [8] (present substance 1,000 mcg/ml), 24.5 mm. Further, the “rate of decomposition with dehydropeptidase” value with dehydropeptidase is reported as 2.5×10^-3. The “Solubility in acetone, ethyl acetate and chloroform” value in the data set “Solubility in solvents” (acetone, ethyl acetate and chloroform) was “substantially insoluble”. In the data set “Solubility in solvents”, the “Solubility in water and methanol” value was “Soluble”.

As to `CC(=O)NCCSC1=C(C(=O)O)N2C(=O)C(=C(C)CO)C2C1` (stereo not shown) [KA-6643-X], the MIC in data set [2] was 1.56 µg/mL (≈ 4.78 µM); in the data set on Proteus vulgaris OX17, 0.05 µg/mL (≈ 0.153 µM); against Proteus inconstants, 3.1 µg/mL (≈ 9.5 µM); in data set [3] it was 0.05 µg/mL (≈ 0.153 µM); in [4] it was 0.2 µg/mL (≈ 0.613 µM); in data set [6] it was 0.78 µg/mL (≈ 2.39 µM). Also, in data set [7], the MIC amounted to 3.1 µg/mL (≈ 9.5 µM). Moreover, the zone of inhibition at 25 µg/mL in data set [8] (Escherichia coli, 18 h, present substance 25 mcg/ml, No AB-PC added, read-out: Diameter of inhibitory zone) came out at 19 mm. In addition, in data set [8] (Escherichia coli, 18 h, present substance 50 mcg/ml, No AB-PC added, read-out: Diameter of inhibitory zone), the zone of inhibition at 50 µg/mL was determined as 21 mm. Besides, the “Diameter of inhibitory zone” value in [8] (present substance 25 mcg/ml) is on record as 21.5 mm; in data set [8] (present substance 50 mcg/ml), 23.0 mm. The “Solubility in acetone, ethyl acetate, chloroform and ether” value in the data set “Solubility in solvents” (acetone, ethyl acetate, chloroform and ether) is recorded as “substantially insoluble”. In “Solubility in solvents”, the “Solubility in water and methanol” value is “Soluble”.

These data come from patent US4468350A, “KA-6643-Series antibiotics, process for producing same and medical composition containing same” (Kowa Co., Ltd., priority 1980, dated 1984).
